In brackets after ≈: the same amount, converted by molar mass.
Key:
Type in all cases: physicochemical
[1] = solubility in organic solvents
[2] = hygroscopicity comparison of polymorphs; conditions: anhydrous polymorphs compared
[3] = accelerated stability study of Form B (open dish, temperature/humidity; XRPD and HPLC); parameters: key to Crystal Form (XRPD vs unstressed time 0 sample): NC: No Change
Excerpt: Physical and chemical stability of Form B is an important attribute not only with respect to ensuring dissolution and solubility, but also for API and dosage form drug development and manufacturing operations (drying, storage, shipping transfers, etc.). Not all crystalline forms have the needed stability to enable drug development. A crystal form that is stable with respect to both temperature and humidity is desired. In order to assess the stability of the crystal form of selpercatinib an accelerated stability study iss carried out. Samples of Form B are weighed into 20 mL scintillation vials and placed (open dish) into bell jars with saturated salt solutions in ovens at the specified temperatures and for the specified times in Table 4. The Form B is analyzed before and after the accelerated stability study and is collected on a Bruker D8 Advance XRPD, equipped with a CuKα source (wavelength = 1.54056 Å) and a Linxeye detector, and operating at 40 kV and 40 mA, with a 0.2 mm divergence slit. Each sample is scanned from 4° to 30° 2θ in 0.02° steps at a rate of 0.2 seconds per step. Assay and impurities relative to the starting material are assessed using an Agilent 1260 HPLC System with Diode Array Detector. Samples are prepared at appropriate concentrations in 50/50 0.1%TFA in water/0.1%TFA in ACN and evaluated using the following HPLC conditions: Column Zorbax Bonus-RP, 75 × 4.6 mm i.d., 3.5 micron, mobile phase A is 0.1% TFA in water, mobile phase B is 0.1% TFA in ACN, gradient is 95% A at time 0, 23% A at time 9.5-12.1 minutes, 5% A at time 13-16 minutes, 95% A at time 16.1-20 minutes with a flow rate of 1.5 mL/min, a column temperature of 30° C., UV detection wavelength of 210 nm, and injection volume of 3 µL.

[4] = equilibrium solubility in aqueous media and simulated fluids
Protocol: Solubility studies were completed on the crystal form of selpercatinib described herein. Aqueous media covering the physiological pH range and three simulated fluids were used in these studies. A sufficient quantity of solid compound to saturate the volume of solvent is weighed into a vessel with approximately 1 mL of the specified solvent. […] After equilibration, samples are transferred to centrifuge filters (Durapore PVDF, 0.22 µm pore size) and centrifuged for 3 min at 10,000 rpm, while maintaining 37° C. A 100 µL aliquot is then withdrawn from each sample and diluted with 900 µL of 50:50 acetonitrile:water. The pH of the filtrate is recorded using calibrated scientific pH equipment. The solution concentration of the compound is determined by HPLC using an Agilent Zorbax Bonus-RP 4.6 × 75 mm, 3.5 µm column under the following conditions:; temperature is 30° C.; injection volume is 4 µL; ultraviolet detection at 238 nm; flow rate is 1.5 mL/min; autosampler temperature is 25° C.; mobile phase A is 0.1% trifluoroacetic acid in water; and mobile phase B is 0.1% trifluoroacetic acid in acetonitrile. The HPLC gradient is as follows: 0 min -95% A, 5% B; 9.5 min - 23% A, 77% B; 12.1 min - 23% A, 77% B; 13 min - 5% A, 95% B; 16 min - 5% A, 95% B; 16.1 min - 95% A, 5% B; 20 min - 95% A, 5% B. The table below (Table 3) details the equilibrium solubility data and equilibrium pH, reported as a mean of duplicate sample preparations. The solid form of the residual solid from the centrifuge sample is verified by XRPD, as noted in Table 5.

COc1ccc(CN2C3CC2CN(c2ccc(-c4cc(OCC(C)(C)O)cn5ncc(C#N)c45)cn2)C3)cn1 [Form A, 6-(2-hydroxy-2-methylpropoxy)-4-(6-(6-((6-methoxypyridin-3-yl)methyl)-3,6-diazabicyclo[3.1.1]heptan-3-yl)pyridin-3-yl)pyrazolo[1,5-a]pyridine-3-carbonitrile]
solubility in many organic solvents, including MEK, acetone, and many alcohol based solvents ([1]; 25° C.): poor | solubility ([1]; dichloromethane, dimethylsulfoxide and THF, organic solvent or mixture, 25° C., called moderate solubility, read-out: solubility in dichloromethane (DCM), dimethylsulfoxide (DMSO) and THF): 3 to 30 mg/mL (≈ 5710 to 57100 µM) | hygroscopicity [2]: slightly more hygroscopic than Form B

COc1ccc(CN2C3CC2CN(c2ccc(-c4cc(OCC(C)(C)O)cn5ncc(C#N)c45)cn2)C3)cn1 [Form B, 6-(2-hydroxy-2-methylpropoxy)-4-(6-(6-((6-methoxypyridin-3-yl)methyl)-3,6-diazabicyclo[3.1.1]heptan-3-yl)pyridin-3-yl)pyrazolo[1,5-a]pyridine-3-carbonitrile]
Assay (%) in comparison to the unstressed (time 0) sample ([3]; 7 days, 40 °C, 11% RH): 99.2% | Crystal Form (XRPD vs unstressed time 0 sample) ([3]; 7 days, 40 °C, 11% RH): NC | Impurities (%) ([3]; 7 days, 40 °C, 11% RH): 0.10% | Assay (%) in comparison to the unstressed (time 0) sample ([3]; 7 days, 40 °C, 75% RH): 99.4% | Crystal Form (XRPD vs unstressed time 0 sample) ([3]; 7 days, 40 °C, 75% RH): NC | Impurities (%) ([3]; 7 days, 40 °C, 75% RH): 0.11% | Assay (%) in comparison to the unstressed (time 0) sample ([3]; 7 days, 50 °C, 30% RH): 99.4% | Crystal Form (XRPD vs unstressed time 0 sample) ([3]; 7 days, 50 °C, 30% RH): NC | Impurities (%) ([3]; 7 days, 50 °C, 30% RH): 0.09% | Assay (%) in comparison to the unstressed (time 0) sample ([3]; 7 days, 50 °C, 50% RH): 99.2% | Crystal Form (XRPD vs unstressed time 0 sample) ([3]; 7 days, 50 °C, 50% RH): NC | Impurities (%) ([3]; 7 days, 50 °C, 50% RH): 0.10% | Assay (%) in comparison to the unstressed (time 0) sample ([3]; 7 days, 70 °C, 11% RH): 100.7% | Crystal Form (XRPD vs unstressed time 0 sample) ([3]; 7 days, 70 °C, 11% RH): NC | Impurities (%) ([3]; 7 days, 70 °C, 11% RH): 0.09% | Assay (%) in comparison to the unstressed (time 0) sample ([3]; 7 days, 70 °C, 75% RH): 100.3% | Crystal Form (XRPD vs unstressed time 0 sample) ([3]; 7 days, 70 °C, 75% RH): NC | Impurities (%) ([3]; 7 days, 70 °C, 75% RH): 0.10% | Assay (%) in comparison to the unstressed (time 0) sample ([3]; 14 days, 40 °C, 11% RH): 99.9% | Crystal Form (XRPD vs unstressed time 0 sample) ([3]; 14 days, 40 °C, 11% RH): NC | Impurities (%) ([3]; 14 days, 40 °C, 11% RH): 0.09% | Assay (%) in comparison to the unstressed (time 0) sample ([3]; 14 days, 40 °C, 75% RH): 99.9% | Crystal Form (XRPD vs unstressed time 0 sample) ([3]; 14 days, 40 °C, 75% RH): NC | Impurities (%) ([3]; 14 days, 40 °C, 75% RH): 0.10% | Assay (%) in comparison to the unstressed (time 0) sample ([3]; 14 days, 50 °C, 30% RH): 100.5% | Crystal Form (XRPD vs unstressed time 0 sample) ([3]; 14 days, 50 °C, 30% RH): NC | Impurities (%) ([3]; 14 days, 50 °C, 30% RH): 0.09% | Assay (%) in comparison to the unstressed (time 0) sample ([3]; 14 days, 50 °C, 50% RH): 100.4% | Crystal Form (XRPD vs unstressed time 0 sample) ([3]; 14 days, 50 °C, 50% RH): NC | Impurities (%) ([3]; 14 days, 50 °C, 50% RH): 0.11% | Assay (%) in comparison to the unstressed (time 0) sample ([3]; 14 days, 70 °C, 11% RH): 99.3% | Crystal Form (XRPD vs unstressed time 0 sample) ([3]; 14 days, 70 °C, 11% RH): NC | Impurities (%) ([3]; 14 days, 70 °C, 11% RH): 0.10% | Assay (%) in comparison to the unstressed (time 0) sample ([3]; 14 days, 70 °C, 75% RH): 100.9% | Crystal Form (XRPD vs unstressed time 0 sample) ([3]; 14 days, 70 °C, 75% RH): NC | Impurities (%) ([3]; 14 days, 70 °C, 75% RH): 0.11% | stability under the testing conditions ([3]; accelerated stability study, conditions of Table 4): chemically and physically stable | Impurities (%) ([3]; time point 0 days, unstressed sample): 0.09% | Equilibrium pH ([4]; 0.01N HCl, 37° C., 24-hour equilibration): 3.634 | Equilibrium pH ([4]; 0.01 N NaOH, 37° C., 24-hour equilibration): 9.985 | Equilibrium pH ([4]; 0.1N HCl, 21.5° C. (ambient)): 1.297 | Equilibrium pH ([4]; FaSSIF, 37° C., 24-hour equilibration): 6.445 | Equilibrium pH ([4]; FeSSIF, 37° C., 24-hour equilibration): 4.928 | Equilibrium pH ([4]; SGF (simulated gastric fluid), 37° C., 24-hour equilibration): 2.644 | Equilibrium pH ([4]; Water, 37° C., 24-hour equilibration): 7.146 | solubility at 24 h ([4]; aqueous buffer, thermodynamic from solid, 0.01 N NaOH, 37° C., 24-hour equilibration): 1.1 µg/mL (≈ 2.09 µM) | solubility ([4]; aqueous media, 37 °C, thermodynamic from solid, indicated by the aqueous solubility results, read-out: intrinsic solubility): ~1 µg/mL (≈ 1.9 µM) | solubility at 24 h ([4]; citrate/phosphate buffer pH 4.0, aqueous buffer, thermodynamic from solid, pH 4.0 Citrate/Phosphate, 37° C., 24-hour equilibration): 712 µg/mL (≈ 1350 µM) | solubility at 24 h ([4]; pH 1.297, simulated gastric fluid, thermodynamic from solid, 0.1N HCl, measured at 21.5° C. (ambient), 24-hour equilibration): ≥ 10000 µg/mL | solubility at 24 h ([4]; pH 2.644, thermodynamic from solid, SGF (simulated gastric fluid), 37° C., 24-hour equilibration, retained solids non-crystalline by XRPD): 1440 µg/mL (≈ 2740 µM) | solubility at 24 h ([4]; pH 3.634, simulated gastric fluid, thermodynamic from solid, 0.01N HCl, 37° C., 24-hour equilibration): 4770 µg/mL (≈ 9080 µM) | Equilibrium pH ([4]; pH 4.0 Citrate/Phosphate, 37° C., 24-hour equilibration): 4.134 | Equilibrium pH ([4]; pH 4.5 Acetate (USP), 37° C., 24-hour equilibration): 4.496 | solubility at 24 h ([4]; pH 4.5 acetate buffer (USP), aqueous buffer, thermodynamic from solid, pH 4.5 Acetate (USP), 37° C., 24-hour equilibration): 169 µg/mL (≈ 322 µM) | Equilibrium pH ([4]; pH 6.0 Phosphate (USP), 37° C., 24-hour equilibration): 6.027 | solubility at 24 h ([4]; pH 6.0 phosphate buffer (USP), aqueous buffer, thermodynamic from solid, pH 6.0 Phosphate (USP), 37° C., 24-hour equilibration): 8.6 µg/mL (≈ 16.4 µM) | solubility at 24 h ([4]; pH 7.146, thermodynamic from solid, Water, 37° C., 24-hour equilibration): 3.6 µg/mL (≈ 6.85 µM) | Equilibrium pH ([4]; pH 7.5 Phosphate (USP), 37° C., 24-hour equilibration): 7.526 | solubility at 24 h ([4]; pH 7.5 phosphate buffer (USP), aqueous buffer, thermodynamic from solid, pH 7.5 Phosphate (USP), 37° C., 24-hour equilibration): 2.2 µg/mL (≈ 4.19 µM) | solubility at 24 h ([4]; thermodynamic from solid, FaSSIF (fasted-state simulated intestinal fluid, pH 6.5), 37° C., 24-hour equilibration): 9.6 µg/mL (≈ 18.3 µM) | solubility at 24 h ([4]; thermodynamic from solid, FeSSIF (fed-state simulated intestinal fluid, pH 5.0), 37° C., 24-hour equilibration): 228 µg/mL (≈ 433 µM) | solubility in anisole [1]: almost no solubility

From patent US20230212193A1, “CRYSTALLINE RET INHIBITOR” (Loxo Oncology, Inc., priority 2020, published 2023)
